Laboratory results taken from patent publication US20170360780A1, “PHARMACEUTICAL COMPOSITION COMPRISING BICYCLIC NITROGEN-CONTAINING AROMATIC HETEROCYCLIC AMIDE COMPOUND AS ACTIVE INGREDIENT” (Astellas Pharma Inc., priority 2014, published 2017).

Columns and labels:
KMS-12-BM cells [1] = assay: Test Example 6: combination use with lenalidomide, nude mice bearing KMS-12-BM tumors; assay type: in vivo, human; conditions: for Anti-tumor effect of combination use with lenalidomide versus single administration: mice bearing tumors of human myeloma, combination use of lenalidomide and compound; for Rate of tumor regression / Inhibition rate of tumor growth: KMS-12-BM, nude mice, 14 days, next day of final administration
Procedure: KMS-12-BM cells derived from human myeloma were prepared at 5×10^7 cells/mL of a mixed solution of PBS and Matrigel (registered trademark) in 1:1 ratio, and 0.1 mL was implanted to CAnN.Cg-Foxn1^nu/CrlCrlj mice (4- to 5-week-old male nude mice, Charles River Laboratories Japan, Inc.) under the skin on the back (5×10^6 cells/head). Dividing into groups by the tumor volume was performed when tumor cells were engrafted under the skin and the average tumor volume exceeded approximately 200 mm^3. […] The test compound dissolved in 6% cyclodextrin aqueous solution was orally administered by the dosage of 8 mg/kg or 1 mg/kg once a day for 14 days continuously. Lenalidomide (MedChemExpress.) was suspended in 6% cyclodextrin aqueous solution and was orally administered by the dosage of 100 mg/kg once a day for 14 days continuously. The inhibition rate of tumor growth and the rate of tumor regression in each group on the next day of the final administration were calculated by using the formula below.
(§1) [Tumor volume (mm^3)]=[major axis of tumor (mm)]×[minor axis of tumor (mm)]^2×0.5
(§2) Inhibition rate of tumor growth (%)=(1−average of tumor volume growth in each group/average of tumor volume growth in control group)×100
Rate of tumor regression (%)=(1−average tumor volume in each group on measuring day/average tumor volume in each group when starting administration)×100
The inhibition rate of tumor growth and the rate of tumor regression in each group on the next day of the final administration is shown in Table 6.

KMS-12-BM cells [2] = assay: Test Example 4: anti-tumor test on nude mice bearing KMS-12-BM human myeloma tumors; assay type: in vivo; conditions: 17 days, next day of final administration
Source text: (§3) KMS-12-BM cells and RPMI 8226 cells which are derived from human myeloma were respectively purchased from JCRB cell bank (National Institutes of Biochemical Innovation, Health and Nutrition), and ATCC. KMS-12-BM cells were implanted to CAnN.Cg-Foxn1^nu/CrlCrlj mice (4- to 5-week-old male nude mice, Charles River Laboratories Japan, Inc.), and RPMI 8226 cells to CB17/Icr-Prkdc^scid/CrlCrlj mice (4- to 5-week-old male SCID mice, Charles River Laboratories Japan, Inc.), respectively. Each of tumor cells were prepared at 5×10^7 cells/mL of a mixed solution of PBS and Matrigel (registered trademark) in 1:1 ratio, and 0.1 mL was implanted to the mice under the skin on the back (5×10^6 cells/head). Dividing into groups by the tumor volume was performed when tumor cells were engrafted under the skin and the average tumor volume exceeded approximately 150 mm^3 (5 mice for each group). The test compound dissolved in 6% cyclodextrin aqueous solution (Sigma-Aldrich Co.) was orally administered by the dosage of 8 mg/kg or 1 mg/kg once a day. 6% Cyclodextrin aqueous solution was also orally administered for the solvent group (control group) once a day. Oral administration was performed continuously for 17 days for KMS-12-BM cells, and 18 days for RPMI 8226 cells. The inhibition rate of tumor growth and the rate of tumor regression on the next day of the final administration were calculated by using the formula below.
as §1, §2
(§4) Rate of tumor regression (%)=(1−average tumor volume in each group on measuring day/average tumor volume in each group when dividing groups)×100

RPMI 8226 cells [3] = assay: Test Example 4: anti-tumor test on SCID mice bearing RPMI 8226 human myeloma tumors; assay type: in vivo; conditions: RPMI 8226, SCID mice, 18 days, next day of final administration
Source text: as §3, §1, §2, §4

KMS-12-BM cells [4] = assay: Test Example 3: anti-tumor test on nude mice bearing KMS-12-BM human myeloma tumors; assay type: in vivo; conditions: 8 mg/kg oral once a day, 21 days, next day of final administration
Procedure: (§5) KMS-12-BM cells (purchased) or OPM-2 cells (purchased) derived from human myeloma were prepared at 5×10^7 cells/mL of a mixed solution of PBS and Matrigel (registered trademark) in 1:1 ratio, and 0.1 mL was implanted to CAnN.Cg-Foxn1^nu/CrlCrlj mice (4-week-old male nude mice, Charles River Laboratories Japan, Inc.) under the skin on the back (5×10^6 cells/head). Dividing into groups by the tumor volume was performed when tumor cells were engrafted and the average tumor volume exceeded approximately 300 mm^3 (5 mice for each group). The test compound dissolved in 6% cyclodextrin aqueous solution (Sigma-Aldrich Co.) was orally administered by the dosage of 8 mg/kg once a day for 21 days in the test using KMS-12-BM cells, and for 7 days in the test using OPM-2 cells, respectively. 6% Cyclodextrin aqueous solution was orally administered for a solvent group (control group) once a day.
(§6) The body weight and the tumor diameter were measured twice a week, and the anti-tumor effect and the effect on the body weight were examined. For calculation of the tumor volume, the formula below was used.
as §1
(§7) The inhibition rate of tumor growth and the rate of tumor regression were calculated from the average value of the tumor volume according to the formula below. […]

KMS-12-BM cells [5] = assay: Test Example 5: combination use with lenalidomide, nude mice bearing KMS-12-BM tumors; assay type: in vivo, human; conditions: 27 days, next day of final administration
Procedure: KMS-12-BM cells derived from human myeloma were prepared at 2.8×10^7 cells/mL of a mixed solution of PBS and Matrigel (registered trademark) in 1:1 ratio, and 0.1 mL was implanted to CAnN.Cg-Foxn1^nu/CrlCrlj mice (4-week-old male nude mice, Charles River Laboratories Japan, Inc.) under the skin on the back (2.8×10^6 cells/head). Dividing into groups by the tumor volume was performed when tumor cells were engrafted and the average tumor volume exceeded approximately 200 mm^3, and 5 mice were set for each group. The test compound dissolved in 6% cyclodextrin aqueous solution was orally administered by the dosage of 2 mg/kg once a day for 27 days. Lenalidomide (MedChemExpress.) was suspended in 6% cyclodextrin aqueous solution and was orally administered by the dosage of 100 mg/kg once a day for 27 days. The dosage of 2 mg/kg of the test compound and 100 mg/kg of lenalidomide were orally administered for a combination administered group once a day, respectively. 6% Cyclodextrin aqueous solution was orally administered for the solvent group (control group) once a day. The body weight and the tumor diameter were measured twice a week, and the anti-tumor effect and the effect on the body weight were examined. For calculation of the tumor volume, the formula below was used.
as §1
The inhibition rate of tumor growth and the rate of tumor regression were calculated from the average value of the average tumor volume according to the formula below.
as §2, §4

OPM-2 cells = assay: Test Example 3: anti-tumor test on nude mice bearing OPM-2 human myeloma tumors; assay type: in vivo; conditions: OPM-2, nude mice, 8 mg/kg oral once a day, 7 days; next day of final administration
Procedure: as §5, §6, §1, §7

RPMI 8226 cells [6] = assay: Test Example 3: anti-tumor test on SCID mice bearing RPMI 8226 human myeloma tumors; assay type: in vivo; conditions: RPMI 8226, SCID mice, 8 mg/kg oral once a day, 21 days; next day of final administration
Procedure: RPMI 8226 cells (purchased) derived from human myeloma were prepared at 5×10^7 cells/mL of a mixed solution of PBS and Matrigel (registered trademark) in 1:1 ratio, and 0.1 mL was implanted to CB17/Icr-Prkdc^scid/CrlCrlj mice (5-week-old male SCID mice, Charles River Laboratories Japan, Inc.) under the skin on the back (5×10^6 cells/head). Dividing into groups by the tumor volume was performed when tumor cells were engrafted and the average tumor volume exceeded approximately 150 mm^3 (5 mice for each group). The test compound dissolved in 6% cyclodextrin aqueous solution was orally administered by the dosage of 8 mg/kg once a day for 21 days continuously. 6% Cyclodextrin aqueous solution was orally administered for a solvent group (control group) once a day.
as §6, §1
The inhibition rate of tumor growth and the rate of tumor regression were calculated from the average value of the tumor volume according to the formula below.
Inhibition rate of tumor growth (%)=(1−average of tumor volume growth in each group/average of tumor volume growth in control group)×100 […]

[7] = test compound 8 mg/kg + lenalidomide 100 mg/kg oral once a day
[8] = test compound 8 mg/kg + solvent, oral once a day
[9] = test compound 1 mg/kg + lenalidomide 100 mg/kg oral once a day
[10] = test compound 1 mg/kg + solvent, oral once a day

For `COc1cnc(CN2CCC(c3ccc4c(c3)cc(C(=O)N3CCN(Cc5ccc(C#N)cc5)CC3)n4C)CC2)cn1` [Compound D, 4-({4-[(5-{1-[(5-methoxypyrazin-2-yl)methyl]piperidin-4-yl}-1-methyl-1H-indol-2-yl)carbonyl]piperazin-1-yl}methyl)benzonitrile], the “Anti-tumor effect of combination use with lenalidomide versus single administration” value (KMS-12-BM cells [1]) was “stronger anti-tumor effect than each single administration thereof”.

With `COc1cnc(CN2CCC(c3ccc4[nH]c(C(=O)N5CCN(Cc6ccc(C(F)(F)F)cc6)CC5)nc4c3)CC2)cn1` [Compound B1, (5-{1-[(5-methoxypyrazin-2-yl)methyl]piperidin-4-yl}-1H-benzimidazol-2-yl){4-[4-(trifluoromethyl)benzyl]piperazin-1-yl}methanone] the “Rate of tumor regression” value (KMS-12-BM cells [1]; [7]) was 42% regression, the “Rate of tumor regression” value (KMS-12-BM cells [1]; [8]) was 20% regression and the “Rate of tumor regression” value (KMS-12-BM cells [2]; 8 mg/kg oral once a day) was 6% regression. For the same compound, the “Rate of tumor regression” value (RPMI 8226 cells [3]; 8 mg/kg oral once a day) was 4% regression.

`COc1cnc(CN2CCC(c3ccc4[nH]c(C(=O)N5CCN(Cc6ccc(C(F)(F)F)cc6)CC5)nc4c3)CC2)cn1` [Compound B, (5-{1-[(5-methoxypyrazin-2-yl)methyl]piperidin-4-yl}-1H-benzimidazol-2-yl){4-[4-(trifluoromethyl)benzyl]piperazin-1-yl}methanone] was tested, and the “Anti-tumor effect of combination use with lenalidomide versus single administration” value (KMS-12-BM cells [1]) was “stronger anti-tumor effect than each single administration thereof”.

For `COc1ccc(CN2CCC(c3ccc4[nH]c(C(=O)N5CCN(Cc6ccc(C(F)(F)F)cc6)CC5)nc4c3)CC2)cn1` [Compound A1, (5-{1-[(6-methoxypyridin-3-yl)methyl]piperidin-4-yl}-1H-benzimidazol-2-yl){4-[4-(trifluoromethyl)benzyl]piperazin-1-yl}methanone], the “Rate of tumor regression” value (KMS-12-BM cells [4]) was 100% regression, the “Rate of tumor regression” value (KMS-12-BM cells [1]; [7]) was 39% regression and the “Inhibition rate of tumor growth” value (KMS-12-BM cells [1]; [8]) was 100% inhibition. For the same compound, the “Rate of tumor regression” value (KMS-12-BM cells [5]; test compound 2 mg/kg + lenalidomide 100 mg/kg oral once a day) was 100% regression, the “Rate of tumor regression” value (KMS-12-BM cells [5]; test compound alone 2 mg/kg oral once a day) was 24% regression and the “Inhibition rate of tumor growth” value (KMS-12-BM cells [2]; 8 mg/kg oral once a day) was 99% inhibition. For the same compound, the “Inhibition rate of tumor growth” value (RPMI 8226 cells [3]; 8 mg/kg oral once a day) was 99% inhibition, the “Rate of tumor regression” value (OPM-2 cells) was 17% regression and the “Inhibition rate of tumor growth” value (RPMI 8226 cells [6]) was 97% inhibition.

In the case of `CCOc1cnc(CN2CCC(c3ccc4cc(C(=O)N5CCN(Cc6ccc(C#N)cc6)CC5)n(C)c4c3)CC2)cn1` [Compound C, 4-({4-[(6-{1-[(5-ethoxypyrazin-2-yl)methyl]piperidin-4-yl}-1-methyl-1H-indol-2-yl)carbonyl]piperazin-1-yl}methyl)benzonitrile], the “Anti-tumor effect of combination use with lenalidomide versus single administration” value (KMS-12-BM cells [1]) is reported as “stronger anti-tumor effect than each single administration thereof”.

For `COc1cnc(CN2CCC(c3ccc4c(c3)cc(C(=O)N3CCN(Cc5ccc(C#N)cc5)CC3)n4C)CC2)cn1` [Compound D1, 4-({4-[(5-{1-[(5-methoxypyrazin-2-yl)methyl]piperidin-4-yl}-1-methyl-1H-indol-2-yl)carbonyl]piperazin-1-yl}methyl)benzonitrile], the “Inhibition rate of tumor growth” value (KMS-12-BM cells [1]; [9]) was 74% inhibition, the “Inhibition rate of tumor growth” value (KMS-12-BM cells [1]; [10]) was 61% inhibition and the “Inhibition rate of tumor growth” value (KMS-12-BM cells [2]; 1 mg/kg oral once a day) was 71% inhibition. The “Inhibition rate of tumor growth” value (RPMI 8226 cells [3]; 1 mg/kg oral once a day) was 75% inhibition.

In the case of `CCOc1cnc(CN2CCC(c3ccc4cc(C(=O)N5CCN(Cc6ccc(C#N)cc6)CC5)n(C)c4c3)CC2)cn1` [Compound C1, 4-({4-[(6-{1-[(5-ethoxypyrazin-2-yl)methyl]piperidin-4-yl}-1-methyl-1H-indol-2-yl)carbonyl]piperazin-1-yl}methyl)benzonitrile], the “Rate of tumor regression” value (KMS-12-BM cells [1]; [9]) is reported as 64% regression, the “Rate of tumor regression” value (KMS-12-BM cells [1]; [10]) is reported as 40% regression and the “Rate of tumor regression” value (KMS-12-BM cells [2]; 1 mg/kg oral once a day) is reported as 68% regression. The “Rate of tumor regression” value (RPMI 8226 cells [3]; 1 mg/kg oral once a day) was 25% regression.

For `COc1ccc(CN2CCC(c3ccc4[nH]c(C(=O)N5CCN(Cc6ccc(C(F)(F)F)cc6)CC5)nc4c3)CC2)cn1` [Compound A, (5-{1-[(6-methoxypyridin-3-yl)methyl]piperidin-4-yl}-1H-benzimidazol-2-yl) {4-[4-(trifluoromethyl)benzyl]piperazin-1-yl}methanone], the “Anti-tumor effect of combination use with lenalidomide versus single administration” value (KMS-12-BM cells [1]) was “stronger anti-tumor effect than each single administration thereof”.

For `Nc1cccc2c1CN(C1CCC(=O)NC1=O)C2=O` (stereo not drawn) [Lenalidomide, lenalidomide, reference compound], the “Inhibition rate of tumor growth” value (KMS-12-BM cells [1]; solvent + lenalidomide 100 mg/kg oral once a day) was 21% inhibition and the “Inhibition rate of tumor growth” value (KMS-12-BM cells [5]; lenalidomide alone 100 mg/kg oral once a day) was 53% inhibition.
